Experimental data from patent US9273021B2, “Dibenzofuran derivatives as inhibitors of fructose 1,6-bisphosphatase and methods of use thereof” (TRUSTEES OF BOSTON COLLEGE, priority 2009, dated 2016).
“And” between values parts separate entries of the source, which are not always exact repeats. Identical values can stand only once. Like-named read-outs stand apart in the source and are kept apart here.

Assays:
[1] = target: pig kidney FBPase (Sus scrofa, UniProt P00636); test: FBPase activity, enzyme-coupled spectrophotometric assay; type: biochemical; conditions: for IC50: pig kidney FBPase; for inhibition of pig kidney FBPase relative to AMP: compared with AMP, the natural allosteric inhibitor
pig kidney FBPase, sequence (P00636 2-338 limits assumed): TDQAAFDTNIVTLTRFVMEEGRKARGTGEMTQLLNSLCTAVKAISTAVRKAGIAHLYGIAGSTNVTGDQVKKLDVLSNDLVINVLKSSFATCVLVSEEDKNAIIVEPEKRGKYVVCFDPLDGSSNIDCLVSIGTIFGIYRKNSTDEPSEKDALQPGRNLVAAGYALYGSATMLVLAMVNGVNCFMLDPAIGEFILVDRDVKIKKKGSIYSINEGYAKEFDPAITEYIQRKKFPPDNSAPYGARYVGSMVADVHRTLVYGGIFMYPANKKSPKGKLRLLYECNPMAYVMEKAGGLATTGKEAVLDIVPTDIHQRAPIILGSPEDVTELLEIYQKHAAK
Method: The test were performed using an enzyme-coupled assay^17 with AMP as a control.
(§1) FBPase activity was measured spectrophotometrically by employing the coupling enzymes phosphoglucose isomerase and glucose-6-phosphate dehydrogenase.^17 The reduction of NADP+ to NADPH was monitored directly at 340 nm. Specifically, buffer (0.2 M Tris, 4 mM MgCl2, 4 mM (NH4)2SO4, 0.1 EDTA, pH 7.5), 0.2 mM of NADP+, 1.4 units of phosphoglucose isomerase and 0.5 units of glucose-6-phosphate dehydrogenase, 0-300M of inhibitor and 9 ng of FBPase, were mixed in a cuvette and equilibrated at 30° C. 70M of FBP was then added to initiate the reaction. Absdata were collected as a function of time using a JASCO V-630 spectrophotometer.
(§2) After a lag phase, due to coupling, a straight line was fitted to the progress curve and the slope value was recorded asAbs340 per min. The amount of NADPH produced per minute was calculated using the 340 nm millimolar extinction coefficient of 6.22. At each inhibitor concentration, reactions were performed in duplicate. Inhibition curves were obtained for each compound by plotting the relative activity versus inhibitor concentration.

[2] = target: human liver FBPase (Homo sapiens (Human), UniProt P09467); test: as above; type: biochemical; conditions: for IC50: human liver FBPase; for inhibition of human liver FBPase relative to AMP: compared with AMP, the natural allosteric inhibitor
human liver FBPase, sequence (P09467 2-338): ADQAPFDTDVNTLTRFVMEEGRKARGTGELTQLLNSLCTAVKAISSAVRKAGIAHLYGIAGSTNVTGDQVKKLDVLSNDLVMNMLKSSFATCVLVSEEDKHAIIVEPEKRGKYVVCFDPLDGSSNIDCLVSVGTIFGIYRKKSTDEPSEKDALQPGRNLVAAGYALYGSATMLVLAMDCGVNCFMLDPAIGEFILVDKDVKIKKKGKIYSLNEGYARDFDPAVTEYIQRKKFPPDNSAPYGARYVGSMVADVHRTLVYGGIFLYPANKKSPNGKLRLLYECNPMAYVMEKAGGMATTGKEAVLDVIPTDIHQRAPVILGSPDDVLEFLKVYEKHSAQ
Method: Compounds 3 and 4 (see Scheme 1) were synthesized and tested to determine if they could inhibit either pig kidney or human liver FBPase. The test were performed using an enzyme-coupled assay^17 with AMP as a control.
as §1, §2

[3] = test system: plasma glucose levels; conditions: compared with Metformin (250 mg/kg); cited from earlier work
[4] = test system: allosteric site of FBPase; test: TNP-AMP fluorescence competition experiment; type: binding; conditions: TNP-AMP at 0.5 times its Kd
Method: Fluorescence data were collected using a JASCO FP-6300 spectro-fluorometer. Excitation and emission wavelengths of 410 and 535 nm respectively were used for TNPAMP (Molecular Probes). 0.15 mg of the respective FBPases, 0.08 mM MgCl and 20M fructose 1, 6-2 bisphosphate in 50 mM Tris-acetate buffer, pH 7.5, was added to a 2 mL cuvette and stirred. 3.5 M of TNP-AMP was added to the cuvette and the emission data was obtained Microliter volumes of 3 were subsequently added to the cuvette and resultant emission data was obtained after each addition. The final concentration of 3 in the enzyme solution was 6M.

[5] = Solubility (remark in competition experiment); type: physicochemical
[6] = read-out: FBPase, IC50 Human Liver

| SMILES | IC50 [1] | IC50 [2, 6] | inhibition of pig kidney FBPase relative to AMP [1] | inhibition of human liver FBPase relative to AMP [2] | solubility [5] | lowering of plasma glucose levels [3] | IC50 ([2]; read-out: IC50 human liver FBPase) | TNP-AMP fluorescence on addition of increasing concentrations of compound [4] |
| --- | --- | --- | --- | --- | --- | --- | --- | --- |
| C=C(C)C(O)Cc1c(O)c(C(=O)C(C)CC)c(O)c2c1oc1c(C(=O)C(C)CC)c(O)c(CC=C(C)C)c(O)c12 (stereo not shown) [Compound 1, achyrofuran] | – | – | – | – | – | better than that of Metformin | – | – |
| CC(=O)C1=C(O)C=C2Oc3c(C(C)=O)c(O)c(C)c(O)c3[C@@]2(C)C1=O [Compound 2, (+)-usnic acid, reference compound] | – | – | – | – | – | – | 370 µM | – |
| CC(C)CC(=O)c1c(O)cc2oc3c(C(=O)CC(C)C)c(O)cc(O)c3c2c1O [Compound 3, 1,1′-(1,3,7,9-tetrahydroxydibenzofuran-2,6-diyl)bis(3-methylbutan-1-one)] | 1.5 ± 0.1 µM | 8.1 µM | comparable to that of AMP | comparable to that of AMP | relatively low solubility | – | – | substantial diminution of the TNP-AMP fluorescence |

More lines, main results first:

| IC50 [1] | IC50 [2, 6] | inhibition of pig kidney FBPase relative to AMP [1] | inhibition of human liver FBPase relative to AMP [2] | solubility [5] | SMILES | lowering of plasma glucose levels [3] | IC50 ([2]; read-out: IC50 human liver FBPase) | TNP-AMP fluorescence on addition of increasing concentrations of compound [4] |
| --- | --- | --- | --- | --- | --- | --- | --- | --- |
| 1.3 µM | 9.7 µM and 9.8 µM | – | – | – | Nc1ncnc2c1ncn2[C@@H]1O[C@H](COP(=O)(O)O)[C@@H](O)[C@H]1O [AMP, reference compound] | – | – | – |
| 5 µM | 6 µM | comparable to that of AMP | comparable to that of AMP | relatively low solubility | CCC(C)C(=O)c1c(O)cc2oc3c(C(=O)C(C)CC)c(O)cc(O)c3c2c1O (stereo not shown) [Compound 4, 1,1′-(1,3,7,9-tetrahydroxydibenzofuran-2,6-diyl)bis(2-methylbutan-1-one)] | – | – | substantial diminution of the TNP-AMP fluorescence |
